Assay results: patent US11655253B2, “CBP/catenin signaling pathway inhibitors and uses thereof” (3+2 Pharma, LLC, priority 2020, dated 2023)
“Also recorded” adds a separate entry of the source. Each block holds one compound with its values, some of them ahead of it.

Columns and labels:
[1] = tested on: bleomycin induced model of IPF in mice; assay: Bleomycin induced mouse model of idiopathic pulmonary fibrosis; type: in vivo; settings: for overall survival and Ashcroft scoring versus historical control data for pirfenidone and nintedanib: from day 7 after bleomycin for 2 weeks; for extracellular collagen deposition (Masson's trichrome blue staining) compared to bleomycin saline treated historical control / survival: all treatment groups; for survival: to day 21; for Ashcroft score / Left lung weight / Post-caval lobe weight / Body weight: n = 3, mean +/− SD; for Body weight: day of sacrifice
Excerpt: Bleomycin induced model of IPF.
Results. […] FIGS. 8A-8E are as follows: historical bleomycin saline treated control (8A, “ID:103”); [3+2]-120A low dose (8B, “ID:102”); [3+2]-120A high dose (8C, “ID:201”); [[3+2]-120B low dose (8D, ID:302”); and [3+2]-120B high dose (8E, ID:401”).

[2] = tested on: NC/Nga mice atopic dermatitis model; assay: NC/Nga mouse model of atopic dermatitis; type: in vivo; settings: for dermatitis scores compared to vehicle control / TEWL (transepidermal water loss) compared to vehicle control: topical once daily Day 0-13; for TEWL (transepidermal water loss) compared to vehicle control: day 14; for mean body weight versus Vehicle group: any day during the treatment period
Protocol: NC/Nga mice (female) were obtained from CHARLES RIVER LABORATORIES JAPAN INC. Mice were randomized into […] of 8 mice on Day 0 based on their body weight and dermatitis score. Eight NC/Nga mice were topically administered test compound-containing [3+2]-121A (compound 34) ointment (in a volume of 100 mg) once daily from Day 0 to Day 13, or vehicle control (hydrophilic petrolatum).
Representative test substance [3+2]-121A was formulated in hydrophilic petrolatum at low (100 uM) and high (500 uM) dosages (referred to in the study as [3+2]-121A and [3+2]-121B, respectively). 7-week-old female NC/Nga mice were used. The first induction of atopic dermatitis was performed three weeks before compound administration, for which the mice were shaved of hair on their backs and behind the ears with a clipper and a shaver. Then the mice had their hair removed completely with a depilatory agent (Epilat™, Kracie Home Products, Ltd.) before 100 mg of Biostir AD® ointment was applied to the shaved dorsal skin and both surfaces of each ear evenly with a plastic spoon. The second induction of atopic dermatitis was performed subsequently. The mice were shaved of hair on their backs and behind the ears, then 150 μl of 4% sodium lauryl sulfate solution was applied to the back and behind the ears with a plastic spoon. After this, it was dried with a hair dryer (cold air) and then left to dry naturally for about 1 to 2 hours. 100 mg of Biostir AD® ointment was applied to the shaved dorsal skin and both surfaces of each ear evenly with a plastic spoon. This procedure was repeated twice a week for three weeks. Twenty-four atopic dermatitis model mice were sorted into 3 groups of 8 mice based on their body weight and dermatitis severity score on the morning at Day 0. Vehicle control (hydrophilic petrolatum), [3+2]-121A or [3+2]-121B was administered topically in a volume of 100 mg once daily from Day 0 to Day 13. Body weight and food consumption were measured once a week at Day 0, 7 and 14. The severity of dermatitis was evaluated at Day 0, 3, 7, 10 and 14. The development of 1) erythema/hemorrhage, 2) scarring/dryness, 3) edema, 4) excoriation/erosion were scored as 0 (none), 1 (mild), 2 (moderate) and 3 (severe). The sum of the individual scores was taken as the dermatitis score. The TEWL was evaluated at Day 0 and at Day 14 after administration. Histological analyses were performed on lower neck dorsal skin and auricle that were fixed in 10% neutral formalin, embedded in paraffin and sectioned at 3-4 μm sections and stained with hematoxylin-eosin using Carrazzi's hematoxylin solution. For analysis of the skin area, bright field images of HE-stained sections were randomly captured using a digital camera (DS-Fi3; Nikon) at 2 and 4-fold magnification. Statistical analyses were performed using Prism Software 6 (GraphPad Software, USA). Statistical analyses were performed using Dunnett's Comparison Test. Comparisons were made between the following groups; Group 1 (Vehicle) vs. Group 2 ([3+2]-121A) and Group 3 ([3+2]-121B). P values <0.05 were considered statistically significant. Results were expressed as mean±SD.

[3] = tested on: STAM mouse model of NASH-HCC; assay: STAM mouse model of NASH-HCC; type: in vivo, mice; settings: after 4 weeks of treatment, vehicle 5 out of 8
Protocol: In the vehicle control treated group only 5 out of 8 mice survived, whereas in the 3+2]-120A at 100 mg/kg/day (A-low) and 400 mg/kg/day (A-high), 7 out of 8 and 8 out of 8 mice survived respectively.

[4] = tested on: memory CD4+ T-cells in SIVmac251-infected RMs; settings: ART-suppressed SIVmac251-infected RMs; cited from earlier work
[5] = tested on: patients with HCV cirrhosis; settings: intravenous, cited from earlier work
[6] = tested on: β-catenin binding to p300; assay: Co-immunoprecipitation assay in SW480 cells, p300 IP; type: cell-based
Protocol: (§1) FIG. 4A and FIG. 4B, show, according to further non-limiting aspects of the present invention, a co-immunoprecipitation assay that was performed in SW480 cells as previously described (Emami K. et al. PNAS USA, 2004 Aug. 24; 101 (34): 12682-7) to further confirm that the positive control compound ICG-001 and [3+2]-117 selectively disrupt β-catenin binding to CBP (FIG. 4A), while enhancing the binding of β-catenin to p300 (FIG. 4B). Immunoprecipitation of β-catenin with CBP was inhibited by ICG-001 at 10 μM ([…]) and by [3+2]-117 at 500 nM. […] Quantification of the immunoblotting data based upon pixelation is shown below the immunoblots.

[7] = target: T1, β-catenin binding to CBP (Homo sapiens, UniProt Q92793); assay: Co-immunoprecipitation assay in SW480 cells, CBP IP; type: cell-based; settings: 10 μM
T1 construct: endogenous in cells; host or cells: SW480 colorectal cancer cells
T1 sequence (Q92793 whole entry): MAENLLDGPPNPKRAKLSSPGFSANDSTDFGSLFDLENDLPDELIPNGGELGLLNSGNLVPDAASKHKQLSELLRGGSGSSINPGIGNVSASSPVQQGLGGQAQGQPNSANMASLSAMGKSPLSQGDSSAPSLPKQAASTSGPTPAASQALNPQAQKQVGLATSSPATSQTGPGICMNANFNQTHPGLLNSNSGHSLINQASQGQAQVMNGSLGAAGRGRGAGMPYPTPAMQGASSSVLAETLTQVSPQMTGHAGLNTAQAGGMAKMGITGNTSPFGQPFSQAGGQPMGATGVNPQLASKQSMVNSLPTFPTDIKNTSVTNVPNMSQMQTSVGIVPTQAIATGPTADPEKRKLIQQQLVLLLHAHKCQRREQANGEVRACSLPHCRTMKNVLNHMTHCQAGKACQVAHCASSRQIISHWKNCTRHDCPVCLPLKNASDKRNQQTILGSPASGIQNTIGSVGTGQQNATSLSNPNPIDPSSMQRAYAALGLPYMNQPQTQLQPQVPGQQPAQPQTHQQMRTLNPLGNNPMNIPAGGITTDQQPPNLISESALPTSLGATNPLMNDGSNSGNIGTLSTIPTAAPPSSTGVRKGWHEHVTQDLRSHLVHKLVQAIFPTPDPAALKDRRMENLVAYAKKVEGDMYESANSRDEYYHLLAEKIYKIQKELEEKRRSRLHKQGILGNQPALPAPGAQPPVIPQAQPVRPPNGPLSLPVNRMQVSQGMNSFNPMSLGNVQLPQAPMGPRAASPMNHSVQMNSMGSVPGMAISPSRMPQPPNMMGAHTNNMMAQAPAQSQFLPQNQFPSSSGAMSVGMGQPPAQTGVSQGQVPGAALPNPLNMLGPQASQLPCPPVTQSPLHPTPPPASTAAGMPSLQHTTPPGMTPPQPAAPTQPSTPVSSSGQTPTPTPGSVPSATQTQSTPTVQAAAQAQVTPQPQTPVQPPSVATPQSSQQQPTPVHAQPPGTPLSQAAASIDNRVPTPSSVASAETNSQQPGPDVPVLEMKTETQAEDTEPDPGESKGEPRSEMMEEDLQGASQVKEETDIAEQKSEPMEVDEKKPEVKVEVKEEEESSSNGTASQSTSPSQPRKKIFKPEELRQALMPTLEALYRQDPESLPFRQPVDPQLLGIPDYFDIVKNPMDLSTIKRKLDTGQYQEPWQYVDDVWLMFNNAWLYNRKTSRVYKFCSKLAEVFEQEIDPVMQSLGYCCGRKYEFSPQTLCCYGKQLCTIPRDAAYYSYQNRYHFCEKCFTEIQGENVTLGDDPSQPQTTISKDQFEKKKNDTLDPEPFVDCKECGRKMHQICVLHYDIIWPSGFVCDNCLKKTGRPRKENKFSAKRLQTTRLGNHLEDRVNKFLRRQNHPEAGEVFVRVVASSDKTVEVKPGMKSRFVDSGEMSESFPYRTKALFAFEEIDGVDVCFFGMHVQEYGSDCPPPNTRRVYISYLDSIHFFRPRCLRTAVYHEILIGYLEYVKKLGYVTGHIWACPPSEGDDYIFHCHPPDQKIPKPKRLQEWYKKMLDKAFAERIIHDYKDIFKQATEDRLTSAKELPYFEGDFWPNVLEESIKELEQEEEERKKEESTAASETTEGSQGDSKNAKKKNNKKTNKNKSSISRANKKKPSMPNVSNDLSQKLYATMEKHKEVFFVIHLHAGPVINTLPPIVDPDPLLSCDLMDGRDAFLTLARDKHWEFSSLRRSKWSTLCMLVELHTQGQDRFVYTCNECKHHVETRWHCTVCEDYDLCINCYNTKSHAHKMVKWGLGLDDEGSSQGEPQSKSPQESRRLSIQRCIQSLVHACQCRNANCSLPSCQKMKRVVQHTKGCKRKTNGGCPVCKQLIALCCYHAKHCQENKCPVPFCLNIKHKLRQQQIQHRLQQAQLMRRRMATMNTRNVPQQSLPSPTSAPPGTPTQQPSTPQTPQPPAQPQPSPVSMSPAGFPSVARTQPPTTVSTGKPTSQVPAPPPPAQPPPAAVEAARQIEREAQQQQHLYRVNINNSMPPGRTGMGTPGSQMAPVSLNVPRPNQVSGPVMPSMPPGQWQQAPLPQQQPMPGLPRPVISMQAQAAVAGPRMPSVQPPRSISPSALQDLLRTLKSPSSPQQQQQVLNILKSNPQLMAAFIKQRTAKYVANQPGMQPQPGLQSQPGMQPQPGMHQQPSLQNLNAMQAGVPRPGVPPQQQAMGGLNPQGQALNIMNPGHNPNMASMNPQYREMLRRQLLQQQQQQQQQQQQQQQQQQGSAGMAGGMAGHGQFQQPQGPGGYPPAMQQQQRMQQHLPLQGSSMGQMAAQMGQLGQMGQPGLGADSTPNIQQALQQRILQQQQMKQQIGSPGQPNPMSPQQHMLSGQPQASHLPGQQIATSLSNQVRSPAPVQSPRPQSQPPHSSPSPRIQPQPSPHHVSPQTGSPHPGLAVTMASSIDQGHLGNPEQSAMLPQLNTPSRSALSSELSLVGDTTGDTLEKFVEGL
Protocol: as §1

[8] = high dosage group (400 mg/kg/day p.o.)
[9] = both dosage groups (100 and 400 mg/kg/day p.o.)

SMILES: CCOC(=O)CNC(=O)CNC(=O)Oc1ccc(C[C@H]2C(=O)N(Cc3cccc4ncccc34)C[C@H]3N2C(=O)CN(Cc2cc(-c4ccccn4)no2)N3C(=O)NCc2ccccc2)cc1 [[3+2]-120B, ethyl 2-(2-((4-(((6S,9aS)-1-(benzylcarbamoyl)-4,7-dioxo-2-((3-(pyridin-2-yl)isoxazol-5-yl)methyl)-8-(quinolin-5-ylmethyl)octahydro-1H-pyrazino[2,1-c][1,2,4]triazin-6-yl)methyl)phenoxy)carbonylamino)acetamido)acetate]
- overall survival and Ashcroft scoring versus historical control data for pirfenidone and nintedanib ([1]; 400 mg/kg/day p.o.): compared favorably
- extracellular collagen deposition (Masson's trichrome blue staining) compared to bleomycin saline treated historical control [1]: significant reduction
- survival [1]: all mice survived
- Ashcroft scores [1, 8]: significant decrease
- lung weights [1, 8]: significant decrease
- weight gain [1, 8]: significant increase
- Ashcroft score ([1]; high dose (400 mg/kg/day p.o.)): 2.1 +/− 0.7
- Left lung weight ([1]; high dose (400 mg/kg/day p.o.)): 65 ± 13 mg
- Post-caval lobe weight ([1]; high dose (400 mg/kg/day p.o.)): 21 ± 6 mg
- Body weight ([1]; high dose (400 mg/kg/day p.o.)): 19.5 ± 1.6 g
- Ashcroft score ([1]; low dose p.o.): 3.9 +/− 1.4
- Left lung weight ([1]; low dose p.o.): 77 ± 15 mg
- Post-caval lobe weight ([1]; low dose p.o.): 39 ± 17 mg
- Body weight ([1]; low dose p.o.): 15.1 ± 3.8 g

- food consumption per mouse versus Vehicle group ([2]; low (100 uM)): no significant differences
SMILES: CCCCCCCCCCCC(=O)Oc1ccc(C[C@H]2C(=O)N(Cc3cccc4ccccc34)C[C@H]3N2C(=O)CN(Cc2cc(-c4ccccc4)no2)N3C(=O)NCc2ccccc2)cc1 [[3+2]-121A]
- dermatitis scores compared to vehicle control ([2]; high (500 uM) ointment): significantly decreased
- TEWL (transepidermal water loss) compared to vehicle control ([2]; high (500 uM) ointment): significantly decreased
- inflammation and inflammatory cell influx (histological analysis) ([2]; low (100 uM)): significant reduction
- dermatitis scores compared to vehicle control ([2]; low (100 uM) ointment): significantly decreased
- TEWL (transepidermal water loss) compared to vehicle control ([2]; low (100 uM) ointment): significantly decreased; also recorded: significant decrease
- dermatitis severity score on the back compared with Vehicle group ([2]; low (100 uM), Days 10 and 14): significant decrease
- mean body weight versus Vehicle group ([2]; low (100 uM)): no significant differences
- total dermatitis severity score compared with Vehicle control group ([2]; low (100 uM), primarily on the back, Days 10 and 14): significant decrease

SMILES: CS(=O)(=O)O.O=C1[C@H](Cc2ccc(O)cc2)N2C(=O)CN(Cc3cc(-c4ccccn4)no3)N(C(=O)NCc3ccccc3)[C@H]2CN1Cc1cccc2ncccc12 [[3+2]-120A]
- overall survival and Ashcroft scoring versus historical control data for pirfenidone and nintedanib ([1]; 100 mg/kg/day p.o.): compared favorably
- overall survival and Ashcroft scoring versus historical control data for pirfenidone and nintedanib ([1]; 400 mg/kg/day p.o.): compared favorably
- extracellular collagen deposition (Masson's trichrome blue staining) compared to bleomycin saline treated historical control [1]: significant reduction
- survival [1]: all mice survived
- Ashcroft scores [1, 9]: significant decrease
- lung weights [1, 9]: significant decrease
- weight gain [1, 9]: significant increase
- Ashcroft score ([1]; high dose (400 mg/kg/day p.o.)): 2.5 +/− 2.0
- Left lung weight ([1]; high dose (400 mg/kg/day p.o.)): 66 ± 33 mg
- Post-caval lobe weight ([1]; high dose (400 mg/kg/day p.o.)): 25 ± 18 mg
- Body weight ([1]; high dose (400 mg/kg/day p.o.)): 16.9 ± 3.8 g
- Ashcroft score ([1]; low dose p.o.): 2.2 +/− 1.7
- Left lung weight ([1]; low dose p.o.): 65 ± 19 mg
- Post-caval lobe weight ([1]; low dose p.o.): 21 ± 9 mg
- Body weight ([1]; low dose p.o.): 18.2 ± 0.7 g
- mice survived ([3]; 100 mg/kg/day p.o. (A-low)): 7 out of 8
- mice survived ([3]; 400 mg/kg/day p.o. (A-high)): 8 out of 8

SMILES: C[C@H]1[C@H]2N(C(=O)CN(C)N2C(=O)NCc2ccccc2)[C@@H](Cc2ccc(OP(=O)(O)O)cc2)C(=O)N1Cc1cccc2cccnc12 [PRI-724]
- proliferation of T memory stem cells (SCM) and central memory T-cells (CM) [4]: decrease
- safety ([5]; 10 and 40 mg/m^2/day for 12 weeks (1 week on and 1 week off)): safe
- plasma exposure of the drug ([5]; 10 and 40 mg/m^2/day for 12 weeks): dose-dependent
- liver histology and Child Pugh scores ([5]; 10 and 40 mg/m^2/day for 12 weeks, in several patients): improvement

SMILES: O=C1[C@H](Cc2ccc(O)cc2)N2C(=O)CCN(C(=O)NCc3ccccc3)[C@H]2CN1Cc1cccc2ccccc12 [ICG-001]
- minimal interaction between β-catenin and p300 [6]: not blocked
- amount of β-catenin co-immunoprecipitated with p300 ([6]; 10 μM): slightly increases
- Immunoprecipitation of β-catenin with CBP [7]: inhibited

- food consumption per mouse versus Vehicle group ([2]; high (500 uM)): no significant differences
SMILES: CCCCCCCCCCCC(=O)Oc1ccc(C[C@H]2C(=O)N(Cc3cccc4ccccc34)C[C@H]3N2C(=O)CN(Cc2cc(-c4ccccc4)no2)N3C(=O)NCc2ccccc2)cc1 [[3+2]-121B]
- inflammation and inflammatory cell influx (histological analysis) ([2]; high (500 uM)): significant reduction
- TEWL (transepidermal water loss) compared to vehicle control ([2]; high (500 uM) ointment, listed as 121B): significant decrease
- mean body weight versus Vehicle group ([2]; high (500 uM)): no significant differences
